Measured values published in ChEMBL document CHEMBL5724914, “Linking interpersonal differences in gut microbiota composition and drug biotransformation activity” (2024).
Each block holds one compound with its values, some of them ahead of it.

Columns and labels:
[1] = (§1) The drug is tested on Z-011 corresponding to mouse gut metagenome with ENA study accession number: PRJEB37062 and ENA sample accession number: ERS12561811 for biotransformation under anaerobic condition. The drug concentrations were measured over 9 timepoints collected between 0 and 24 hours of incubation by liquid-chromatography-coupled mass spectrometry (LC–MS); conditions: 2 µM
[2] = as §1, with “WLS-220” for “Z-011”, “human” for “mouse”, “ERS12561769” for “ERS12561811”; conditions: 2 µM
[3] = human gut metagenome, 24 h, 2 µM
[4] = as §1, with “Z-007” for “Z-011”, “rat” for “mouse”, “ERS12561807” for “ERS12561811”; conditions: 2 µM
[5] = as §1, with “WLS-007” for “Z-011”, “human” for “mouse”, “ERS12561742” for “ERS12561811”; conditions: 2 µM
[6] = as §1, with “WLS-027” for “Z-011”, “human” for “mouse”, “ERS12561744” for “ERS12561811”; conditions: 2 µM
[7] = human gut metagenome, 24 h, 2 µM; remark: listed apart in the source
[8] = as §1, with “Z-014” for “Z-011”, “rat” for “mouse”, “ERS12561814” for “ERS12561811”; conditions: 2 µM
[9] = human gut metagenome, 24 h, 2 µM; remark: listed apart in the source
[10] = as §1, with “Z-001” for “Z-011”, “ERS12561801” for “ERS12561811”; conditions: 2 µM
[11] = human gut metagenome, 24 h, 2 µM; remark: listed apart in the source
[12] = as §1, with “Z-017” for “Z-011”, “ERS12561816” for “ERS12561811”; conditions: 2 µM
[13] = human gut metagenome, 24 h, 2 µM; remark: listed apart in the source
[14] = as §1, with “WLS-006” for “Z-011”, “human” for “mouse”, “ERS12561741” for “ERS12561811”; conditions: 2 µM
[15] = as §1, with “Z-002” for “Z-011”, “rabbit” for “mouse”, “ERS12561802” for “ERS12561811”; conditions: 2 µM
[16] = as §1, with “Z-024” for “Z-011”, “pig” for “mouse”, “ERS12561823” for “ERS12561811”; conditions: 2 µM
[17] = human gut metagenome, 24 h, 2 µM; remark: listed apart in the source
[18] = as §1, with “WLS-073” for “Z-011”, “human” for “mouse”, “ERS12561749” for “ERS12561811”; conditions: 2 µM
[19] = human gut metagenome, 24 h, 2 µM; remark: listed apart in the source
[20] = as §1, with “WLS-052” for “Z-011”, “human” for “mouse”, “ERS12561747” for “ERS12561811”; conditions: 2 µM
Note: call rule not given here.

Structure (SMILES): CCCN1C[C@H](CSC)C[C@@H]2c3cccc4[nH]cc(c34)C[C@H]21.CS(=O)(=O)O [PERGOLIDE MESYLATE]
Bacterial Biotransformation [1]: Compound NOT metabolized
Bacterial Biotransformation [2]: Compound NOT metabolized
Bacterial Biotransformation [3]: Compound NOT metabolized
Bacterial Biotransformation [4]: Compound NOT metabolized
Bacterial Biotransformation [5]: Compound NOT metabolized
Bacterial Biotransformation [6]: Compound NOT metabolized
Bacterial Biotransformation [7]: Compound NOT metabolized
Bacterial Biotransformation [8]: Compound NOT metabolized
Bacterial Biotransformation [9]: Compound NOT metabolized
Bacterial Biotransformation [10]: Compound NOT metabolized
Bacterial Biotransformation [11]: Compound NOT metabolized
Bacterial Biotransformation [12]: Compound NOT metabolized
Bacterial Biotransformation [13]: Compound NOT metabolized
Bacterial Biotransformation [14]: Compound NOT metabolized
Bacterial Biotransformation [15]: Compound NOT metabolized
Bacterial Biotransformation [16]: Compound NOT metabolized
Bacterial Biotransformation [17]: Compound NOT metabolized
Bacterial Biotransformation [18]: Compound NOT metabolized
Bacterial Biotransformation [19]: Compound NOT metabolized
Bacterial Biotransformation [20]: Compound NOT metabolized

Structure (SMILES): CC(C)(C)N.CCC[C@H](N[C@@H](C)C(=O)N1[C@H](C(=O)O)C[C@@H]2CCCC[C@@H]21)C(=O)OCC [PERINDOPRIL ERBUMINE]
Bacterial Biotransformation [1]: Compound NOT metabolized
Bacterial Biotransformation [2]: Compound metabolized
Bacterial Biotransformation [3]: Compound metabolized
Bacterial Biotransformation [4]: Compound NOT metabolized
Bacterial Biotransformation [5]: Compound metabolized
Bacterial Biotransformation [6]: Compound metabolized
Bacterial Biotransformation [7]: Compound metabolized
Bacterial Biotransformation [8]: Compound NOT metabolized
Bacterial Biotransformation [9]: Compound metabolized
Bacterial Biotransformation [10]: Compound NOT metabolized
Bacterial Biotransformation [11]: Compound metabolized
Bacterial Biotransformation [12]: Compound NOT metabolized
Bacterial Biotransformation [13]: Compound metabolized
Bacterial Biotransformation [14]: Compound metabolized
Bacterial Biotransformation [15]: Compound metabolized
Bacterial Biotransformation [16]: Compound metabolized
Bacterial Biotransformation [17]: Compound metabolized
Bacterial Biotransformation [18]: Compound NOT metabolized
Bacterial Biotransformation [19]: Compound NOT metabolized
Bacterial Biotransformation [20]: Compound NOT metabolized

Structure (SMILES): C=C[C@H]1CN2CC[C@H]1C[C@H]2[C@H](O)c1ccnc2ccc(OC)cc12.C=C[C@H]1CN2CC[C@H]1C[C@H]2[C@H](O)c1ccnc2ccc(OC)cc12.O.O.O=S(=O)(O)O [QUININE SULFATE]
Bacterial Biotransformation [1]: Compound NOT metabolized
Bacterial Biotransformation [2]: Compound metabolized
Bacterial Biotransformation [3]: Compound NOT metabolized
Bacterial Biotransformation [4]: Compound NOT metabolized
Bacterial Biotransformation [5]: Compound NOT metabolized
Bacterial Biotransformation [6]: Compound NOT metabolized
Bacterial Biotransformation [7]: Compound NOT metabolized
Bacterial Biotransformation [8]: Compound NOT metabolized
Bacterial Biotransformation [9]: Compound NOT metabolized
Bacterial Biotransformation [10]: Compound NOT metabolized
Bacterial Biotransformation [11]: Compound metabolized
Bacterial Biotransformation [12]: Compound NOT metabolized
Bacterial Biotransformation [13]: Compound metabolized
Bacterial Biotransformation [14]: Compound metabolized
Bacterial Biotransformation [15]: Compound NOT metabolized
Bacterial Biotransformation [16]: Compound NOT metabolized
Bacterial Biotransformation [17]: Compound metabolized
Bacterial Biotransformation [18]: Compound NOT metabolized
Bacterial Biotransformation [19]: Compound NOT metabolized
Bacterial Biotransformation [20]: Compound NOT metabolized

Structure (SMILES): O=C(NC(Cc1cc(=O)[nH]c2ccccc12)C(=O)O)c1ccc(Cl)cc1 (stereo not given) [REBAMIPIDE]
Bacterial Biotransformation [1]: Compound NOT metabolized
Bacterial Biotransformation [2]: Compound NOT metabolized
Bacterial Biotransformation [3]: Compound NOT metabolized
Bacterial Biotransformation [4]: Compound NOT metabolized
Bacterial Biotransformation [5]: Compound NOT metabolized
Bacterial Biotransformation [6]: Compound NOT metabolized
Bacterial Biotransformation [7]: Compound metabolized
Bacterial Biotransformation [8]: Compound NOT metabolized
Bacterial Biotransformation [9]: Compound NOT metabolized
Bacterial Biotransformation [10]: Compound NOT metabolized
Bacterial Biotransformation [11]: Compound NOT metabolized
Bacterial Biotransformation [12]: Compound NOT metabolized
Bacterial Biotransformation [13]: Compound NOT metabolized
Bacterial Biotransformation [14]: Compound NOT metabolized
Bacterial Biotransformation [15]: Compound metabolized
Bacterial Biotransformation [16]: Compound metabolized
Bacterial Biotransformation [17]: Compound NOT metabolized
Bacterial Biotransformation [18]: Compound NOT metabolized
Bacterial Biotransformation [19]: Compound NOT metabolized
Bacterial Biotransformation [20]: Compound NOT metabolized

Structure (SMILES): CCN(C)C(=O)Oc1cccc([C@H](C)N(C)C)c1.O=C(O)C(O)C(O)C(=O)O [RIVASTIGMINE TARTRATE]
Bacterial Biotransformation [1]: Compound NOT metabolized
Bacterial Biotransformation [2]: Compound NOT metabolized
Bacterial Biotransformation [3]: Compound NOT metabolized
Bacterial Biotransformation [4]: Compound NOT metabolized
Bacterial Biotransformation [5]: Compound NOT metabolized
Bacterial Biotransformation [6]: Compound NOT metabolized
Bacterial Biotransformation [7]: Compound NOT metabolized
Bacterial Biotransformation [8]: Compound NOT metabolized
Bacterial Biotransformation [9]: Compound NOT metabolized
Bacterial Biotransformation [10]: Compound NOT metabolized
Bacterial Biotransformation [11]: Compound NOT metabolized
Bacterial Biotransformation [12]: Compound NOT metabolized
Bacterial Biotransformation [13]: Compound NOT metabolized
Bacterial Biotransformation [14]: Compound NOT metabolized
Bacterial Biotransformation [15]: Compound NOT metabolized
Bacterial Biotransformation [16]: Compound NOT metabolized
Bacterial Biotransformation [17]: Compound NOT metabolized
Bacterial Biotransformation [18]: Compound NOT metabolized
Bacterial Biotransformation [19]: Compound NOT metabolized
Bacterial Biotransformation [20]: Compound metabolized

Other lines, results leading:

Bacterial Biotransformation [1]: Compound NOT metabolized
Bacterial Biotransformation [2]: Compound metabolized
Bacterial Biotransformation [3]: Compound metabolized
Bacterial Biotransformation [4]: Compound metabolized
Bacterial Biotransformation [5]: Compound metabolized
Bacterial Biotransformation [6]: Compound metabolized
Bacterial Biotransformation [7]: Compound metabolized
Bacterial Biotransformation [8]: Compound NOT metabolized
Bacterial Biotransformation [9]: Compound metabolized
Bacterial Biotransformation [10]: Compound metabolized
Bacterial Biotransformation [11]: Compound metabolized
Bacterial Biotransformation [12]: Compound metabolized
Bacterial Biotransformation [13]: Compound metabolized
Bacterial Biotransformation [14]: Compound metabolized
Bacterial Biotransformation [15]: Compound metabolized
Bacterial Biotransformation [16]: Compound metabolized
Bacterial Biotransformation [17]: Compound NOT metabolized
Bacterial Biotransformation [18]: Compound metabolized
Bacterial Biotransformation [19]: Compound metabolized
Bacterial Biotransformation [20]: Compound metabolized
Structure (SMILES): CCOc1cc(CC(=O)N[C@@H](CC(C)C)c2ccccc2N2CCCCC2)ccc1C(=O)O [REPAGLINIDE]

Bacterial Biotransformation [1]: Compound NOT metabolized
Bacterial Biotransformation [2]: Compound NOT metabolized
Bacterial Biotransformation [3]: Compound NOT metabolized
Bacterial Biotransformation [4]: Compound NOT metabolized
Bacterial Biotransformation [5]: Compound NOT metabolized
Bacterial Biotransformation [6]: Compound NOT metabolized
Bacterial Biotransformation [7]: Compound NOT metabolized
Bacterial Biotransformation [8]: Compound NOT metabolized
Bacterial Biotransformation [9]: Compound NOT metabolized
Bacterial Biotransformation [10]: Compound NOT metabolized
Bacterial Biotransformation [11]: Compound NOT metabolized
Bacterial Biotransformation [12]: Compound NOT metabolized
Bacterial Biotransformation [13]: Compound NOT metabolized
Bacterial Biotransformation [14]: Compound NOT metabolized
Bacterial Biotransformation [15]: Compound NOT metabolized
Bacterial Biotransformation [16]: Compound NOT metabolized
Bacterial Biotransformation [17]: Compound NOT metabolized
Bacterial Biotransformation [18]: Compound NOT metabolized
Bacterial Biotransformation [19]: Compound NOT metabolized
Bacterial Biotransformation [20]: Compound NOT metabolized
Structure (SMILES): CC(N)C12CC3CC(CC(C3)C1)C2 (stereo not given) [RIMANTADINE]

Bacterial Biotransformation [1]: Compound NOT metabolized
Bacterial Biotransformation [2]: Compound metabolized
Bacterial Biotransformation [3]: Compound NOT metabolized
Bacterial Biotransformation [4]: Compound NOT metabolized
Bacterial Biotransformation [5]: Compound NOT metabolized
Bacterial Biotransformation [6]: Compound NOT metabolized
Bacterial Biotransformation [7]: Compound NOT metabolized
Bacterial Biotransformation [8]: Compound NOT metabolized
Bacterial Biotransformation [9]: Compound NOT metabolized
Bacterial Biotransformation [10]: Compound NOT metabolized
Bacterial Biotransformation [11]: Compound metabolized
Bacterial Biotransformation [12]: Compound NOT metabolized
Bacterial Biotransformation [13]: Compound metabolized
Bacterial Biotransformation [14]: Compound NOT metabolized
Bacterial Biotransformation [15]: Compound metabolized
Bacterial Biotransformation [16]: Compound NOT metabolized
Bacterial Biotransformation [17]: Compound metabolized
Bacterial Biotransformation [18]: Compound NOT metabolized
Bacterial Biotransformation [19]: Compound NOT metabolized
Bacterial Biotransformation [20]: Compound NOT metabolized
Structure (SMILES): CCCN(CCC)CCc1cccc2c1CC(=O)N2 [ROPINIROLE]
